From US20090062369A1, “USE OF SECRETORY PHOSPHOLIPASE A2 (SPLA2) INHIBITORS TO DECREASE SPLA2 LEVELS” (priority 2007, published 2009)

System: serum sPLA2
Experiment: Effect of twice-a-day oral A-002 on serum sPLA2 levels in subjects with stable coronary artery disease (Example 6)
Type: in vivo, human
Description: The protocol for preparing standard curve, test, and quality control samples for use in the assay disclosed herein is set forth in Example 5. Samples are prepared according to this protocol, then loaded in duplicate onto a plate (Cayman catalog no. 485002 or equivalent) that has been pre-coated with a monoclonal sPLA2 antibody (“capture antibody”) that specifically binds sPLA2. In certain embodiments, the capture antibody may interact with a specific form of sPLA2, such as for example sPLA2 type IIA.
sPLA2 acetylcholinesterase:Fab′ conjugate (AChE:Fab′) (“conjugate”) (Cayman catalog no. 485000 or equivalent) is reconstituted in EIA buffer (Cayman catalog no. 400060 or equivalent). Cayman EIA buffer is 1M phosphate, pH 7.0, 1% BSA, 4M NaCl, 10 mM EDTA, and 0.1% sodium azide. Reconstituted conjugate is added to each well of the plate. The conjugate binds a different sPLA2 epitope than the capture antibody, allowing the capture antibody and the conjugate to form a “sandwich” that is immobilized on the plate. Excess reagents are washed away, and the plate is covered and incubated overnight at 2-8° C.
Prior to development, the wells are washed five to six times with wash buffer (Cayman catalog no. 400062 or equivalent). To develop the plate, Ellman's Reagent (Cayman catalog no. 400050 or equivalent) is reconstituted in water and added to each well according to manufacturer instructions. The reconstituted Ellman's Reagent must be used the same day it is prepared because it is unstable. Ellman's Reagent contains an AChE substrate. Specifically, Ellman's Reagent contains acetylthiocholine and 5,5′-dithio-bis-(2-nitrobenzoic acid). Hydrolysis of acetylthiocholine by acetylcholinesterase produces thiocholine, which reacts with 5,5′-dithio-bis-(2-nitrobenzoic acid) to produce 5-thio-2-nitrobenzoic acid. 5-thio-2-nitrobenzoic acid has a strong absorbance at 412 nm. The intensity of absorbance at this wavelength is directly proportional to the concentration of bound conjugate, which is in turn is directly proportional to the concentration of sPLA2 present (Absorbance a [AChE:Fab′ conjugate] α [sPLA2]). During the development step, the plate is shaken, preferably in the dark. In certain embodiments the development time for the assay is 0.5 to 3 hours, preferably 1 to 1.5 hours. At the end of the development period, the high sPLA2 standards should have greater yellow color development than the zero standards. Absorbance of each well is measured at 400-420 nm using a micro-well plate reader. In certain embodiments, absorbance is measured at about 405 nm.
Absorbance readings for duplicate wells are averaged, and the relative standard deviation and % CV are calculated. Standard curve data are used to generate a four parameter curve, and quality control and test samples are measured against the appropriate standard curve (i.e., the standard curve with the same serum content). In order for a test to be considered valid, variation between duplicate wells should be no more than about 25%, and negative controls (blanks) for each standard curve should have a mean absorbance of less than about 0.3.
The method disclosed herein for measuring sPLA2 levels in serum was utilized to determine the effect of administering certain sPLA2 inhibitors on sPLA2 levels in 84 human subjects. The subjects included 24 subjects with diabetes, 32 subjects with metabolic syndrome, and 75 subjects receiving statin treatment. Subjects were administered the sPLA2 inhibitor A-002, a prodrug form of A-001, twice a day at varying dosages from 50 to 500 mg. The structures of A-002and A-001 are set forth below. At two weeks and four weeks after the first administration, sPLA2 levels were measured and compared to pre-administration baseline levels.
84 subjects with stable coronary artery disease were randomized to receive placebo or A-002 via oral administration twice a day over a four week administration period. […]

[1] = 50 mg, diabetes subgroup of ITT population
[2] = 50 mg, non-diabetes subgroup of ITT population
[3] = 50 mg, statin subgroup of ITT population
[4] = 100 mg, diabetes subgroup of ITT population
[5] = 100 mg, non-diabetes subgroup of ITT population
[6] = 100 mg, statin subgroup of ITT population

Question: Which results are given for `CCc1c(C(=O)C(N)=O)c2c(OCC(=O)OC)cccc2n1Cc1ccccc1` [A-002, [[3-(2-Amino-1,2-dioxoethyl)-2-ethyl-1-(phenylmethyl)-1H-indol-4-yl]oxy]acetic acid methyl ester]?
Answer: sPLA2 Change from baseline at week 2, Mean (50 mg, ITT population): -2.74 ng/mL; sPLA2 Change from baseline at week 2, Median (50 mg, ITT population): -2.60 ng/mL; sPLA2 Change from baseline at week 2, Range (50 mg, ITT population): -5.30 to -0.60 ng/mL; sPLA2 Change from baseline at week 4, Mean (50 mg, ITT population): -2.50 ng/mL; sPLA2 Change from baseline at week 4, Median (50 mg, ITT population): -2.15 ng/mL; sPLA2 Change from baseline at week 4, Range (50 mg, ITT population): -6.40 to -0.60 ng/mL; sPLA2 level, Baseline, Mean (50 mg, ITT population): 3.24 ng/mL; sPLA2 level, Baseline, Median (50 mg, ITT population): 2.65 ng/mL; sPLA2 level, Baseline, Range (50 mg, ITT population): 0.80 to 8.80 ng/mL; sPLA2 level, Week 2, Mean (50 mg, ITT population): 0.89 ng/mL; sPLA2 level, Week 2, Median (50 mg, ITT population): 0.45 ng/mL; sPLA2 level, Week 2, Range (50 mg, ITT population): 0.20 to 4.00 ng/mL; sPLA2 level, Week 4, Mean (50 mg, ITT population): 0.85 ng/mL; sPLA2 level, Week 4, Median (50 mg, ITT population): 0.70 ng/mL; sPLA2 level, Week 4, Range (50 mg, ITT population): 0.10 to 2.40 ng/mL; sPLA2 Change from baseline at week 2, Mean [1]: -2.05 ng/mL; sPLA2 Change from baseline at week 2, Median [1]: -2.45 ng/mL; sPLA2 Change from baseline at week 2, Range [1]: -2.70 to -0.60 ng/mL; sPLA2 Change from baseline at week 4, Mean [1]: -1.76 ng/mL; sPLA2 Change from baseline at week 4, Median [1]: -1.50 ng/mL; sPLA2 Change from baseline at week 4, Range [1]: -3.20 to -0.60 ng/mL; sPLA2 level, Baseline, Mean [1]: 2.45 ng/mL; sPLA2 level, Baseline, Median [1]: 2.65 ng/mL; sPLA2 level, Baseline, Range [1]: 0.80 to 3.80 ng/mL; sPLA2 level, Week 2, Mean [1]: 0.55 ng/mL; sPLA2 level, Week 2, Median [1]: 0.45 ng/mL; sPLA2 level, Week 2, Range [1]: 0.20 to 1.10 ng/mL; sPLA2 level, Week 4, Mean [1]: 0.66 ng/mL; sPLA2 level, Week 4, Median [1]: 0.60 ng/mL; sPLA2 level, Week 4, Range [1]: 0.20 to 1.20 ng/mL; sPLA2 Change from baseline at week 2, Mean [2]: -3.09 ng/mL; sPLA2 Change from baseline at week 2, Median [2]: -3.05 ng/mL; sPLA2 Change from baseline at week 2, Range [2]: -5.30 to -0.70 ng/mL; sPLA2 Change from baseline at week 4, Mean [2]: -3.03 ng/mL; sPLA2 Change from baseline at week 4, Median [2]: -2.80 ng/mL; sPLA2 Change from baseline at week 4, Range [2]: -6.40 to -0.80 ng/mL; sPLA2 level, Baseline, Mean [2]: 3.72 ng/mL; sPLA2 level, Baseline, Median [2]: 3.20 ng/mL; sPLA2 level, Baseline, Range [2]: 1.30 to 8.80 ng/mL; sPLA2 level, Week 2, Mean [2]: 1.06 ng/mL; sPLA2 level, Week 2, Median [2]: 0.06 ng/mL; sPLA2 level, Week 2, Range [2]: 0.20 to 4.00 ng/mL; sPLA2 level, Week 4, Mean [2]: 0.96 ng/mL; sPLA2 level, Week 4, Median [2]: 0.75 ng/mL; sPLA2 level, Week 4, Range [2]: 0.10 to 2.40 ng/mL; sPLA2 Change from baseline at week 2, Mean [3]: -2.74 ng/mL; sPLA2 Change from baseline at week 2, Median [3]: -2.60 ng/mL; sPLA2 Change from baseline at week 2, Range [3]: -5.30 to -0.60 ng/mL; sPLA2 Change from baseline at week 4, Mean [3]: -2.50 ng/mL; sPLA2 Change from baseline at week 4, Median [3]: -2.15 ng/mL; sPLA2 Change from baseline at week 4, Range [3]: -6.40 to -0.60 ng/mL; sPLA2 level, Baseline, Mean [3]: 3.34 ng/mL; sPLA2 level, Baseline, Median [3]: 2.70 ng/mL; sPLA2 level, Baseline, Range [3]: 0.80 to 8.80 ng/mL; sPLA2 level, Week 2, Mean [3]: 0.89 ng/mL; sPLA2 level, Week 2, Median [3]: 0.45 ng/mL; sPLA2 level, Week 2, Range [3]: 0.20 to 4.00 ng/mL; sPLA2 level, Week 4, Mean [3]: 0.85 ng/mL; sPLA2 level, Week 4, Median [3]: 0.70 ng/mL; sPLA2 level, Week 4, Range [3]: 0.10 to 2.40 ng/mL; sPLA2 Change from baseline at week 2, Mean (100 mg, ITT population): -1.81 ng/mL; sPLA2 Change from baseline at week 2, Median (100 mg, ITT population): -1.85 ng/mL; sPLA2 Change from baseline at week 2, Range (100 mg, ITT population): −3.70 to +2.85 ng/ml; sPLA2 Change from baseline at week 4, Mean (100 mg, ITT population): -2.55 ng/mL; sPLA2 Change from baseline at week 4, Median (100 mg, ITT population): -2.50 ng/mL; sPLA2 Change from baseline at week 4, Range (100 mg, ITT population): -5.70 to 0.00 ng/mL; sPLA2 level, Baseline, Mean (100 mg, ITT population): 2.86 ng/mL; sPLA2 level, Baseline, Median (100 mg, ITT population): 2.95 ng/mL; sPLA2 level, Baseline, Range (100 mg, ITT population): 0.05 to 6.00 ng/mL; sPLA2 level, Week 2, Mean (100 mg, ITT population): 0.68 ng/mL; sPLA2 level, Week 2, Median (100 mg, ITT population): 0.45 ng/mL; sPLA2 level, Week 2, Range (100 mg, ITT population): 0.05 to 2.90 ng/mL; sPLA2 level, Week 4, Mean (100 mg, ITT population): 0.49 ng/mL; sPLA2 level, Week 4, Median (100 mg, ITT population): 0.50 ng/mL; sPLA2 level, Week 4, Range (100 mg, ITT population): 0.05 to 1.10 ng/mL; sPLA2 Change from baseline at week 2, Mean [4]: -1.11 ng/mL; sPLA2 Change from baseline at week 2, Median [4]: -1.80 ng/mL; sPLA2 Change from baseline at week 2, Range [4]: −3.00 to +2.85 ng/ml; sPLA2 Change from baseline at week 4, Mean [4]: -2.30 ng/mL; sPLA2 Change from baseline at week 4, Median [4]: -1.80 ng/mL; sPLA2 Change from baseline at week 4, Range [4]: -5.70 to 0.00 ng/mL; sPLA2 level, Baseline, Mean [4]: 2.78 ng/mL; sPLA2 level, Baseline, Median [4]: 2.50 ng/mL; sPLA2 level, Baseline, Range [4]: 0.05 to 6.00 ng/mL; sPLA2 level, Week 2, Mean [4]: 1.02 ng/mL; sPLA2 level, Week 2, Median [4]: 0.50 ng/mL; sPLA2 level, Week 2, Range [4]: 0.40 to 2.90 ng/mL; sPLA2 level, Week 4, Mean [4]: 0.48 ng/mL; sPLA2 level, Week 4, Median [4]: 0.40 ng/mL; sPLA2 level, Week 4, Range [4]: 0.05 to 1.10 ng/mL; sPLA2 Change from baseline at week 2, Mean [5]: -2.21 ng/mL; sPLA2 Change from baseline at week 2, Median [5]: -2.40 ng/mL; sPLA2 Change from baseline at week 2, Range [5]: -3.70 to -0.40 ng/mL; sPLA2 Change from baseline at week 4, Mean [5]: -2.76 ng/mL; sPLA2 Change from baseline at week 4, Median [5]: -2.60 ng/mL; sPLA2 Change from baseline at week 4, Range [5]: -4.40 to -0.90 ng/mL; sPLA2 level, Baseline, Mean [5]: 2.91 ng/mL; sPLA2 level, Baseline, Median [5]: 3.20 ng/mL; sPLA2 level, Baseline, Range [5]: 1.00 to 4.90 ng/mL; sPLA2 level, Week 2, Mean [5]: 0.48 ng/mL; sPLA2 level, Week 2, Median [5]: 0.30 ng/mL; sPLA2 level, Week 2, Range [5]: 0.05 to 1.20 ng/mL; sPLA2 level, Week 4, Mean [5]: 0.51 ng/mL; sPLA2 level, Week 4, Median [5]: 0.60 ng/mL; sPLA2 level, Week 4, Range [5]: 0.05 to 1.00 ng/mL; sPLA2 Change from baseline at week 2, Mean [6]: -1.81 ng/mL; sPLA2 Change from baseline at week 2, Median [6]: -1.80 ng/mL; sPLA2 Change from baseline at week 2, Range [6]: −3.70 to +2.85 ng/ml; sPLA2 Change from baseline at week 4, Mean [6]: -2.46 ng/mL; sPLA2 Change from baseline at week 4, Median [6]: -2.50 ng/mL
